Assay results as given in patent US8202880B2, “3-hydroxy-6-phenylphenanthridines as PDE4 inhibitors” (NYCOMED GmbH, priority 2002, dated 2012).

Row | melting point [°C] | SMILES
1 | 137 to 138 | COc1cc2c(cc1OC)C1CCC(O)CC1N=C2c1ccc(OCC2CC2)c(OCC2CC2)c1 (racemic) [Compound 3, (±)-(3RS,4aRS,10bRS)-6-(3,4-Bis-cyclopropylmethoxyphenyl)-8,9-dimethoxy(1,2,3,4,4a,10b)-hexahydrophenanthridin-3-ol]
2 | 172.5 to 174 | COc1cc2c(cc1OC)[C@H]1CC[C@H](O)C[C@H]1N=C2c1ccc(OCC2CC2)c(OCC2CC2)c1 (racemic) [Compound 4, (±)-(3SR,4aRS,10bRS)-6-(3,4-Bis-cyclopropylmethoxyphenyl)-8,9-dimethoxy-1,2,3,4,4a,10b-hexahydrophenanthridin-3-ol]
